Assay results: US7972785B2, “Biomarkers for liver fibrotic injury” (Industrial Technology Research Institute (ITRI), priority 2006, dated 2011)

Assays:
[1] = test system: Male Sprague-Dawley rats; experiment: Serum biochemical analysis in DMN-induced rat hepatic fibrosis model; type: in vivo; conditions: DMN-treatment, mean ± SD; for PT (prothrombin time): rat blood; for ACP (acid phosphatase) / AFP (a-fetoprotein) / AKP (alkaline phosphatase) / Albumin / BUN (blood urea nitrogen) / Bilirubin (total bilirubin) / CHOL (cholesterol) / GOT (glutamic oxaloacetic transaminase) / GPT (glutamic pyruvic transaminase) / Globulin / LDH (lactate dehydrogenase): rat serum
Experimental: (§1) A rat hepatic fibrosis model was set up through the use of DMN. DMN is a potent hepatoxin that specifically targets the liver and can cause liver fibrosis. The histopathological changes resulting from DMN treatment involve the rapid deposition of collagen, the major protein of fibrosis and important to the process of cirrhosis. […] The DMN-induced liver fibrosis model was performed as described in Jezequel A. M. et al. (14). Male Sprague-Dawley rats (Slc:SD; Japan SLC, Shizuoka, Japan), weighing from 300 to 350 grams, were used in the experiments. To induce hepatic fibrosis over a six-week time course experiment, the rats were given DMN (Sigma, Saint Louis, Mo.), dissolved in normal saline, three consecutive days a week for the first three consecutive weeks at the dosage of 6.7 mg/kg per body weight by intraperitoneal injection. Injection time points are shown as inverted triangles in FIG. 1. Injections were at a much lower dosage than those used in other experiments where the dosage was 100 mg/kg/day. The higher dosage can cause toxicity in rat liver (21, 22).)
(§2) Two to seven rats at each time point were treated with either DMN or with an equal volume of normal saline without DMN as the control (26 DMN-treated rats and 24 control rats). Rats were weighed and sacrificed on days 11, 18, 25, 32, 39, and 46 (sacrifice time points are shown as triangles in FIG. 1A) respectively. These triangular time points were designated as weeks 1 through 6 (FIG. 1A).
The serum of each rat, 50 rats in total, was subjected to various biochemical examinations related to liver damages. Blood samples, collected from the animals at necropsy, were used to measure serum concentrations or activity of albumin, glutamic oxaloacetic transaminase (GOT), glutamic pyruvic transaminase (GPT), total bilirubin, alkaline phosphatase (AKP), acid phosphatases (ACP), α-fetoprotein (AFP), blood urea nitrogen (BUN), cholesterol (CHOL), lactate dehydrogenase (LDH), globulin, prothrombin time (PT) and blood platelets (PLT) using an Hitachi 747 and ACL 3000 clinical chemistry analyzer system (MYCO, Renton, Wash.). […] The thirteen serum markers identified in these experiments are the same serum markers for human liver fibrosis.

[2] = test system: rat liver; experiment: Histopathological examination of DMN-induced liver damage; type: in vivo
Experimental: as §1, §2
Liver tissues were immediately removed after sacrifice and subject to histopathological examination. The fixed liver samples were then processed for paraffin embedding. Five micrometer (5 μm) sections were prepared for hematoxylin and eosin staining (to score necroinflammatory and fatty changes) and for Sirius red/fast green collagen staining (to score for fibrosis) (23). The fatty changes were classified as presence (+) or absence (−).
In FIG. 2A, the representative phenotypes of the DMN-induced rat liver fibrosis were characterized by scoring the four histopathological features (necrosis, inflammation, fibrosis, and fatty change) as follows: the necrosis scores were from N0 to N3 (the first panel), and the inflammation scores were from I0 to I3. The scoring system for examining the intensity of liver fibrosis was modified from the scoring system of the Hepatitis Activity Index (HAI) (29, 30). Fibrosis was divided into four scores: normal (F0), fibrous expansion of portal tracts (F1), bridging fibrosis (F2) and frequent bridging fibrosis with focal nodule formation (F3). The fatty change was scored as present (+) or absent (−), respectively (the last panel). The images of the fatty change are shown at 200× magnification, whereas the others are shown at 100× magnification (FIG. 2A).
The results were ranked by time course. The necroinflammatory scores were the sum of the necrosis and inflammation scores and range from A0 to A6. The necroinflammatory change was divided into three grades: A0=none, A(1-3)=mild and A(4-6)=moderate necroinflammation. The fibrosis change was divided into two grades: F(0-1)=normal to fibrous expansion of portal tracts, F(2-3)=bridge fibrosis to frequent bridging fibrosis with nodule formation. The fatty change was shown as presence (+) or absence (−). The number of rats was counted and used to calculate the percentage of each histopathological level at each time point.

**Q.** Which “PT (prothrombin time)” value ([1]; 1-2 wk) does the source give for `CN(C)N=O` [DMN, Dimethylnitrosamine] here?
**A.** 18 ± 4 (8) sec

**Q.** And the “PT (prothrombin time)” value ([1]; 3-4 wk)?
**A.** 20 ± 4 (9) sec

**Q.** What about the “PT (prothrombin time)” value ([1]; 5-6 wk) of the same molecule?
**A.** 22 ± 5 (6) sec

**Q.** And the “ACP (acid phosphatase)” value ([1]; 1-2 wk)?
**A.** 1.9 ± 0.6 (4) mg/dl

**Q.** And the “AFP (a-fetoprotein)” value ([1]; 1-2 wk)?
**A.** 0.40 ± 0.19 (4) ng/dl

**Q.** What about the “AKP (alkaline phosphatase)” value ([1]; 1-2 wk) of the same molecule?
**A.** 600.8 ± 93.0 (4) KA

**Q.** And the Albumin ([1]; 1-2 wk)?
**A.** 3.9 ± 0.7 (7) g/dl

**Q.** And the “BUN (blood urea nitrogen)” value ([1]; 1-2 wk)?
**A.** 33 ± 4 (4) mg/dl

**Q.** What about the “Bilirubin (total bilirubin)” value ([1]; 1-2 wk) of the same molecule?
**A.** 0.72 ± 0.53 (8) mg/dl

**Q.** And the “CHOL (cholesterol)” value ([1]; 1-2 wk)?
**A.** 77 ± 8 (4) mg/dl

**Q.** And the “GOT (glutamic oxaloacetic transaminase)” value ([1]; 1-2 wk)?
**A.** 661.5 ± 134.4 (8) U/l

**Q.** What about the “GPT (glutamic pyruvic transaminase)” value ([1]; 1-2 wk) of the same molecule?
**A.** 459.5 ± 78.5 (8) U/l

**Q.** And the Globulin ([1]; 1-2 wk)?
**A.** 6.7 ± 0.1 (2) g/dl

**Q.** And the “LDH (lactate dehydrogenase)” value ([1]; 1-2 wk)?
**A.** 414.8 ± 102.7 (4) IU/l

**Q.** And the “ACP (acid phosphatase)” value ([1]; 3-4 wk)?
**A.** 6.2 ± 1.1 (4) mg/dl

**Q.** What about the “AFP (a-fetoprotein)” value ([1]; 3-4 wk) of the same molecule?
**A.** 0.38 ± 0.05 (4) ng/dl

**Q.** And the “AKP (alkaline phosphatase)” value ([1]; 3-4 wk)?
**A.** 668.3 ± 222.0 (3) KA

**Q.** What about the Albumin ([1]; 3-4 wk) of the same molecule?
**A.** 3.5 ± 0.6 (11) g/dl

**Q.** What about the “BUN (blood urea nitrogen)” value ([1]; 3-4 wk) of the same molecule?
**A.** 36 ± 2 (4) mg/dl

**Q.** What about the “Bilirubin (total bilirubin)” value ([1]; 3-4 wk) of the same molecule?
**A.** 1.01 ± 0.74 (11) mg/dl

**Q.** And the “CHOL (cholesterol)” value ([1]; 3-4 wk)?
**A.** 70 ± 13 (6) mg/dl

**Q.** What about the “GOT (glutamic oxaloacetic transaminase)” value ([1]; 3-4 wk) of the same molecule?
**A.** 1006.1 ± 749.6 (11) U/l

**Q.** What about the “GPT (glutamic pyruvic transaminase)” value ([1]; 3-4 wk) of the same molecule?
**A.** 566.6 ± 313.5 (11) U/l

**Q.** And the Globulin ([1]; 3-4 wk)?
**A.** 5.0 ± 0.8 (4) g/dl

**Q.** And the “LDH (lactate dehydrogenase)” value ([1]; 3-4 wk)?
**A.** 562.0 ± 120.8 (3) IU/l

**Q.** And the “ACP (acid phosphatase)” value ([1]; 5-6 wk)?
**A.** 8.2 ± 0.6 (2) mg/dl

**Q.** What about the “AFP (a-fetoprotein)” value ([1]; 5-6 wk) of the same molecule?
**A.** 0.35 ± 0.07 (2) ng/dl

**Q.** And the “AKP (alkaline phosphatase)” value ([1]; 5-6 wk)?
**A.** 468 ± 12.7 (2) KA

**Q.** What about the Albumin ([1]; 5-6 wk) of the same molecule?
**A.** 3.2 ± 0.1 (7) g/dl

**Q.** What about the “BUN (blood urea nitrogen)” value ([1]; 5-6 wk) of the same molecule?
**A.** 31 ± 5 (2) mg/dl

**Q.** And the “Bilirubin (total bilirubin)” value ([1]; 5-6 wk)?
**A.** 1.13 ± 1.00 (7) mg/dl

**Q.** And the “CHOL (cholesterol)” value ([1]; 5-6 wk)?
**A.** 67 ± 18 (5) mg/dl

**Q.** What about the “GOT (glutamic oxaloacetic transaminase)” value ([1]; 5-6 wk) of the same molecule?
**A.** 1572.9 ± 965.3 (7) U/l

**Q.** What about the “GPT (glutamic pyruvic transaminase)” value ([1]; 5-6 wk) of the same molecule?
**A.** 763.6 ± 405.2 (7) U/l

**Q.** And the Globulin ([1]; 5-6 wk)?
**A.** 3.6 ± 0.3 (2) g/dl

**Q.** What about the “LDH (lactate dehydrogenase)” value ([1]; 5-6 wk) of the same molecule?
**A.** 853.5 ± 91.2 (2) IU/l

**Q.** And the “abnormality in the kidney or spleen” value ([2]; DMN-treated rats, data not shown)?
**A.** no clear abnormality

**Q.** What about the “DMN-treated rats with none (F0) or low levels of fibrosis (F1)” value ([2]; first two weeks, 6.7 mg/kg i.p.) of the same molecule?
**A.** seventy-five

**Q.** What about the “DMN-treated rats with F2 and F3 fibrosis” value ([2]; last two weeks) of the same molecule?
**A.** 78%

**Q.** And the “treated rats with fatty changes present” value ([2]; six-week time course)?
**A.** 3.7%

**Q.** And the “DMN-treated rats with high levels of fibrosis (F2 to F3)” value ([2]; third to fourth week)?
**A.** ~90%
